According to patent US20240085403A1, “METHOD FOR INHIBITING ADVENTITIOUS VIRAL INFECTION” (Allogene Therapeutics, Inc., priority 2022, published 2024):

Key:
[1] = system: PBMCs with integrate HHV-6 genomes (iciHHV6); type: cell-based, human
Description: (§1) We next examined the effects of other known antiviral agents on controlling HHV-6 reactivation using PBMCs with integrate HHV-6 genomes (iciHHV6) to mimic continuous low levels of HHV-6 infection. Ganciclovir, cidofovir and foscarnet are all small molecule inhibitors of HHV viral DNA polymerase. Artesunate is a small molecule antiviral agent targeting HHV immediate early genes. […] See e.g., hhv-6foundation.org/research/hhv-6-antiviral-drug-resistance; Reyman et al., 1995, Antiviral Res. 28:343-57; and Vittayawacharin et al., 2023, Transplant Cell Ther. 29:397. The cells were cultured in X-vivo supplemented media for three days before being split into 4 subcultures. Afterwards, cells were cultured for 15 additional days, with media exchange twice a week, each time containing a fresh dose of the same antiviral agent at the same initial concentration. Cell sampling was taken on different days after the antiviral agent was first added. The effect of the antiviral agent on the viability of cells were analyzed by using a cellular apoptosis screening kit (Thermo Cat #V13242),.

HHV-6 [2] = details: in vitro anti-HHV-6 activity, literature; read-out: EC50 (Reyman 1995); cited from earlier work
HHV-6 [3] = assay: HHV-6 U65 gene copies by qPCR in iciHHV6 PBMCs treated with antiviral agents; type: cell-based, Human herpesvirus 6; details: 15 days culture, concentrations of Table 2
Description: as §1
Next, HHV-6 replication was analyzed by detecting copies of HHV-6 gene U65 by qPCR.
(§2) Genomic DNA was extracted from cells and DNA levels of HHV-6 were determined by quantitative PCR (qPCR). The experiment was carried out using the ThermoFisher Scientific, TaqMan™ Fast Virus 1-Step Master Mix, (Catalog number: 4444434).

HHV-6B (strain Z-29) [4] = assay: Small-scale CAR T process with HHV-6B infection, U31 DNA by qPCR; type: cell-based, human herpesvirus 6B (strain Z-29); details: IFNα 0.1 ng/mL, process D18
Description: (§3) HHV-6 reactivation from PBMC is an extremely rare event in CAR T manufacturing based on existing data. To investigate the feasibility of using IFNα in controlling HHV-6 infectivity, we designed experiments to test the effects of IFNα in the manufacturing process by deliberately introducing active HHV-6 infection. In brief, the PBMCs from two different donors were thawed from frozen storage and cultured in complete media (5% HS+X-vivo+Supplements) for activation and LVV transduction. After electroporation of cells with TALEN mRNA, the T cells were infected with HHV-6B (strain Z-29) at MOI=0.4 for 3 hrs, then transferred to the G-Rex bioreactor for expansion for 10 days (Day 8 to Day 18). IFNα was added into the complete media at different concentrations (100 ng/mL, 10 ng/mL, 1 ng/mL and 0.1 ng/mL) on D8 after the 3 hrs of HHV-6 infection and kept in culture until the end of the expansion period. Cell samples were collected on D11, D13, D15 and D18, i.e., three, five, seven, and ten days post infection, to determine the HHV-6 virus infectivity by RT-qPCR assay (FIG. 4B), flow cytometry detection (FIG. 4C), and qPCR assay (FIG. 4D). Description of RT-qPCR assay, flow cytometry, and genomic DNA qPCR assay are shown in Materials & Methods. […]
Genomic DNA was extracted from cells and DNA levels of HHV-6 were determined by quantitative PCR (qPCR). […]

HHV-6 p41 = assay: Immunofluorescence of HHV-6 p41 protein in CAR T drug product culture; type: cell-based, Human herpesvirus 6
Protocol: To test whether HHV-6 protein expression is affected by IFNα treatment, we performed immunofluorescence using an antibody specific for HHV-6 p41, an HHV-6 early gene product, on cells collected from D4 of the Batch 1 (“HHV-6 high”) DP culture.
The cells were fixed with 4% paraformaldehyde and permeabilized using 0.5% saponin before incubating with HHV6 p41 antibody conjugated with Alexa-488 at 0.2 μg/mL. Cells were stained with DAPI prior to imaging at 20× magnification.

HHV-6B in CEM-HHV6 cells = assay: CEM-HHV6 latency/reactivation model, HHV-6 qPCR after sodium butyrate and PMA reactivation; type: cell-based, human herpesvirus 6B (strain Z-29)
Protocol: We next tested whether viral reactivation can be induced in the latency cell culture model. CEM-HHV6 cells (1×10^7) were reactivated using 100 ng/mL of PMA (phorbol-12-myristate-13-acetate, Cat #500582 Millipore-Sigma) and 1 mM NaButyrate (Cat #19-137, Millipore-Sigma) final concentration for 2 days at 37° C. On day 2 cells were washed and resuspended in RPMI+5% FBS and cultured for 18 days. Media was replenished as needed. CEM-HHV6 cells were collected on days 5, 8, 12, 14, 16, and 19 post-reactivation. HHV-6B viral reactivation was assessed by qPCR analysis of the vgDNA of HHV-6B targeting the U31 and U65-66 genes. Untreated CEM-HHV6 cells were used as a negative control.
The CEM-HHV6 reactivation model described in FIGS. 2A-F was utilized for testing the effects of IFNα in the cell culture model, similar to the testing carried out in DP (FIG. 1A). CEM-HHV6 cells were initially cultured in bulk before the start of the experiment. One day before the start of the experiment (D-1), an aliquot of the CEM-HHV6 cells was taken out and split before treatment with one of three IFNα concentrations (100 ng/mL, 1 ng/mL and 0.01 ng/mL), which constituted the “pre-treatment” of IFNα. Cells were collected from the beginning of the experiment (D0) and continuing every few days throughout. […]

HHV-6B (strain Z-29) [5] = assay: Small-scale CAR T process with HHV-6B infection, viral RNA (U79, U90, U100) by RT-qPCR; type: cell-based, human herpesvirus 6B (strain Z-29)
Description: as §3, with “4D).” for “4D). Description of RT-qPCR assay, flow cytometry, and genomic DNA qPCR assay are shown in Materials & Methods.”
Total RNA was extracted from cells and analyzed using reverse transcription qPCR (RT-qPCR) assay for U79, U90, U100 and GAPDH genes to determine HHV-6 infectivity.

CAR T cells [6] = assay: CAR T cell expansion, % CAR+ and phenotype under IFNα in the HHV-6 infection model; details: IFNα 0.1 ng/mL to 10 ng/mL, added Day 8 to Day 18
CAR T cells [7] = system: CAR T cells
HHV-6 [8] = assay: Timing of IFNα addition before HHV-6 infection, viral DNA by qPCR; type: cell-based, Human herpesvirus 6; details: data not shown
HHV-6 [9] = assay: Timing of IFNα addition before HHV-6 infection, U100 and U79 transcripts by RT-qPCR; type: cell-based, Human herpesvirus 6
Protocol: To mimic the rare reactivation event, PBMC-derived CAR T cells were infected with exogenous HHV-6 at an MOI of 0.4 on Day 8 of the small scale manufacturing process. Cells were treated with IFNα at a concentration of 1 ng/μL or 10 ng/μL on Day 0 (preactivation), Day 1 (activation), Day 4, or Day 6, or untreated throughout the process. All cultures were infected with HHV-6 on Day 8, regardless whether the cells were pre-treated with IFNα or left untreated.
The effects of IFNα on HHV-6 infection were analyzed in cells from two different donors. The transcripts of viral genes U100 (FIGS. 6A and 7A) and U79 (FIGS. 6B and 7B) were analyzed by RT-qPCR at the time points of three, seven and ten days post infection (i.e., on Day 11, Day 15 and Day 18 of the small scale manufacturing process). The y-axis reprepresents relative-fold change for each value compared to the endogenous GAPDH as well as untreated donor RNA (Day 0 before IFNα treatment).

HHV-6 viral antigen p41 = assay: Small-scale CAR T process with HHV-6B infection, p41 viral antigen by flow cytometry; type: cell-based, human herpesvirus 6B (strain Z-29); details: IFNα 0.1 ng/mL, D18, both donors
Description: as §3, with “4D).” for “4D). Description of RT-qPCR assay, flow cytometry, and genomic DNA qPCR assay are shown in Materials & Methods.”
HHV6 infectivity was determined by intracellular staining using antibody against HHV-6 p41 protein at 1 μg/mL and FACS analysis was performed to determine the percent of cells expressing the viral protein.

HHV-6 [10] = assay: HHV-6 U31 viral DNA by qPCR in thawed CAR T drug product cultured with IFNα; type: cell-based, Human herpesvirus 6; details: both lots of DP (Batch 1 HHV-6 high, Batch 2 low); IFNα 0.01, 1, 100 ng/mL; D1-D7
Description: Drug product (DP) for experiment was selected based on the results of screening for HHV-6, among other adventitous agents, at the end of cell engineering process. Batch #1 was one of a few rare occurrences of DP with “positive” levels of HHV-6 and was chosen for the following studies (designated as the “HHV-6 high” group), while Batch #2 was chosen as the “low”-level counterpart. DP vials were retrieved from LN2, thawed and each split into 4 day 0 (D0) flasks. We first tested the effects of a type I IFN, such as IFNα, on the replication and infectivity of HHV-6. Flasks received either complete media (X-vivo +5% human serum (HS)+supplements) or complete media with added IFNα (human IFN-α2a at 100 ng/mL, 1 ng/mL and 0.01 ng/mL, Miltenyi). Cells were cultured for 7 additional days (D1-D7), with daily collections of cells from all conditions for freezing. Media was replaced every three days, with or without added IFNα for corresponding flasks.
Post-cell culture, DNA was extracted from the collected samples, and analyzed by qPCR for HHV-6 marker U31 as described in Material & Methods.
as §2

In the case of `C[C@H]1[C@H](OC(=O)CCC(=O)O)O[C@@H]2O[C@@]3(C)CC[C@H]4[C@H](C)CC[C@@H]1[C@@]24OO3` [Artesunate], the “cell health / apoptosis” value [1] is given as “induced higher level of apoptosis”, the EC50 (HHV-6 [2]) is given as 3.8 µM and the “HHV-6 levels (U65 gene copies by qPCR)” value (HHV-6 [3]) is given as “increased HHV-6 levels over the culture period”.

In the case of `Nc1ccn(C[C@@H](CO)OCP(=O)(O)O)c(=O)n1` [Cidofovir, cidofovir], the “cell health / apoptosis” value [1] is given as “induced higher level of apoptosis”, the EC50 (HHV-6 [2]) is given as 12 to 15 µM and the “HHV-6 levels (U65 gene copies by qPCR)” value (HHV-6 [3]) is given as “increased HHV-6 levels over the culture period”.

In the case of `O=C(O)P(=O)(O)O` [Foscarnet, foscarnet], the “cell health / apoptosis” value [1] is given as “did not negatively affect cell health”, the EC50 (HHV-6 [2]) is given as 8.4 µM and the “HHV-6 levels (U65 gene copies by qPCR)” value (HHV-6 [3]) is given as “maintain the HHV-6 levels at around their starting level”.

For `Nc1nc2c(ncn2COC(CO)CO)c(=O)[nH]1` [Ganciclovir, ganciclovir], the “cell health / apoptosis” value [1] is listed as “did not negatively affect cell health”, the EC50 (HHV-6 [2]) is listed as greater than 25 µM and the “HHV-6 levels (U65 gene copies by qPCR)” value (HHV-6 [3]) is listed as “decreased viral load initially followed by an increase at later time points”.

For “IFNα: human IFN-α2a (Miltenyi), a type I IFN; exemplary sequence SEQ ID NO: 19/20”, the “decrease of HHV-6 DNA levels (U31)” value (HHV-6B (strain Z-29) [4]) was 16 to 38 fold, the “cells positive for HHV-6 p41 (immunofluorescence)” value (HHV-6 p41; Batch 1 (HHV-6 high) DP culture, D4, increasing concentration of IFNα) was “fewer cells positive for HHV-6 p41” and the “cells positive for HHV-6 p41 (immunofluorescence)” value (HHV-6 p41; batch 2 (HHV-6 low) culture, D4, regardless of concentration used, data not shown) was “no detectable HHV-6 p41 positive cells”. The “viral DNA, reactivated (RA) versus non-reactivated (NRA) samples” value (HHV-6B in CEM-HHV6 cells; IFNα 100 ng/mL) was “virtually no distinction between the NRA and the RA samples”, the “level of viral growth (HHV-6 DNA qPCR)” value (HHV-6B in CEM-HHV6 cells; as the IFNα dosage increased (0.01, 1, 100 ng/mL), pre- or post-treatment) was “the level of viral growth was reduced” and the “HHV-6 viral RNA” value (HHV-6B (strain Z-29) [5]; IFNα 10 ng/mL, D18) was “below detectable levels”. For the same compound, the “HHV-6 RNA levels (U79, U90, U100)” value (HHV-6B (strain Z-29) [5]; donor #1, lowest concentration of IFNα, D11 to D18) was “decreased from D11 to D18”, the “fold of CAR T cell expansion” value (CAR T cells [6]) was “did not significantly affect” and the “proliferation of CAR-T cells” value (CAR T cells [7]) was “could suppress the proliferation”. The “viral load as determined by qPCR” value (HHV-6 [8]; IFNα added on Day 6 (C7, C8)) was “lowest level of viral load”, the “suppression of HHV-6 infection (U31 DNA qPCR)” value (HHV-6 [8]; doses of IFNα added closer to infection) was “strongest suppression effect” and the U79 transcript (HHV-6 [9]; IFNα added on Day 4 or Day 6 (samples C5-C8)) was “decreased transcript”. For the same compound, the U100 transcript level (HHV-6 [9]; IFNα added on Day 6 (conditions C7, C8; 10 and 1 ng/μL), infection Day 8, compared to C9) was “greatest reduction of U100 transcript level”, the “HHV-6 viral antigen p41 expression” value (HHV-6 viral antigen p41) was “effectively reduced” and the “HHV-6 viral DNA (U31) fold-change relative to D0” value (HHV-6 [10]) was “reduction in the viral load compared to the control”.
